Bridge positions count the residues as written; N and C are the ends. Square brackets hold non-standard residues; d marks the D form. Peptide text beside a SMILES is read from it. * marks the point of attachment. ξ: configuration not given here. Phe(4-COOH) = N[C@@H](Cc1ccc(C(=O)O)cc1)C(=O)O; Bip = N[C@@H](Cc1ccc(-c2ccccc2)cc1)C(=O)O; Phe(3-Me) = Cc1cccc(C[C@H](N)C(=O)O)c1; ξBip = NC(Cc1ccc(-c2ccccc2)cc1)C(=O)O; 4Pal = N[C@@H](Cc1ccncc1)C(=O)O; Cha = N[C@@H](CC1CCCCC1)C(=O)O; Cit = NC(=O)NCCC[C@H](N)C(=O)O; Carboxymethyl = O=C(O)C*; Orn = NCCC[C@H](N)C(=O)O; Aun = NCCCCCCCCCCC(=O)O; Dab = NCC[C@H](N)C(=O)O; Dap = NC[C@H](N)C(=O)O; ξD = NC(CC(=O)O)C(=O)O; AEEA = NCCOCCOCC(=O)O
Target: T1, PD-1/PD-L1 interaction (PE-labeled human PD-L1-Ig binding to Jurkat cell line over-expressing human PD-1) (Homo sapiens, UniProt Q15116)
T1 construct: expressed in transfected cells; host or cells: Jurkat
T1 sequence (Q15116 25-288): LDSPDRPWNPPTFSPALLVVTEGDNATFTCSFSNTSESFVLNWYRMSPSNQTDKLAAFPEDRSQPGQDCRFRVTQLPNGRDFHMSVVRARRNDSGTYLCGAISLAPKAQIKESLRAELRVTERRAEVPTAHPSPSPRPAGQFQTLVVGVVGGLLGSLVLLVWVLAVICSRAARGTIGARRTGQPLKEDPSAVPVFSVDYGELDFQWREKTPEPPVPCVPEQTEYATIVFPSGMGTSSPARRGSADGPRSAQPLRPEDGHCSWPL
Experiment: Jurkat-PD-1 Cell Binding High-Content Screening Assay (CBA)
Type: cell-based
Conditions: Jurkat cell line over-expressing human PD-1; PE-labeled PD-L1-Ig 20 nM final; read-out: Jurkat hPD1-PDL1 IC50
Procedure, shortened: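 Binding of fluorescent PD-L1-Ig (phycoerythrin on Ig tag, 20 nM final, 1 h) measured by high-content imaging of fixed, Hoechst-counterstained Jurkat-hPD-1 cells. Compound added 2 h at 37° C beforehand, in DMEM with 10% fetal calf serum.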

SMILES	IC50
Cc1cccc(C[C@@H]2NC(=O)C(CC(=O)O)NC(=O)[C@H](Cc3ccc(OCC(=O)O)cc3)NC(=O)[C@H](CN)NC(=O)CSC[C@@H](C(=O)NCCOCCOCC(=O)N[C@@H](CCCN)C(=O)NCCCCCCCCCCC(=O)O)NC(=O)[C@H]([C@@H](C)O)NC(=O)[C@H](C(C)C)NC(=O)[C@H](CC3CCCCC3)NC(=O)[C@H](CCN)NC(=O)[C@@H](CC(C)C)NC(=O)[C@H](CCCN)NC(=O)[C@H](CCCNC(N)=O)NC(=O)C(Cc3ccc(-c4ccccc4)cc3)NC(=O)[C@H](C(C)C)NC2=O)c1 (stereo partly drawn) [Compound 1178] ({CH2CO}-[Dap]Y(Carboxymethyl)[ξD][Phe(3-Me)]V[ξBip][Cit][Orn][dL][Dab][Cha]VTC[AEEA][Orn][Aun]-OH; thioether N-14)	0.0097 µM
Cc1cccc(C[C@@H]2NC(=O)C(CC(=O)O)NC(=O)[C@H](Cc3ccc(OCC(=O)O)cc3)NC(=O)[C@H](CN)NC(=O)CSC[C@@H](C(=O)NCCOCCOCC(=O)N[C@@H](CCCCN)C(=O)NCCCCCCCCCCC(=O)O)NC(=O)[C@H]([C@@H](C)O)NC(=O)[C@H](C(C)C)NC(=O)[C@H](CC3CCCCC3)NC(=O)[C@H](CCN)NC(=O)[C@@H](CC(C)C)NC(=O)[C@H](CCCN)NC(=O)[C@H](CCCNC(N)=O)NC(=O)C(Cc3ccc(-c4ccccc4)cc3)NC(=O)[C@H](C(C)C)NC2=O)c1 (stereo partly drawn) [Compound 1179] ({CH2CO}-[Dap]Y(Carboxymethyl)[ξD][Phe(3-Me)]V[ξBip][Cit][Orn][dL][Dab][Cha]VTC[AEEA]K[Aun]-OH; thioether N-14)	0.0103 µM
Cc1cccc(C[C@@H]2NC(=O)C(CC(=O)O)NC(=O)[C@H](Cc3ccc(OCC(=O)O)cc3)NC(=O)[C@H](CN)NC(=O)CSC[C@@H](C(=O)NCCOCCOCC(=O)N[C@@H](CCCNC(=N)N)C(=O)NCCCCCCCCCCC(=O)O)NC(=O)[C@H]([C@@H](C)O)NC(=O)[C@H](C(C)C)NC(=O)[C@H](CC3CCCCC3)NC(=O)[C@H](CCN)NC(=O)[C@@H](CC(C)C)NC(=O)[C@H](CCCN)NC(=O)[C@H](CCCNC(N)=O)NC(=O)C(Cc3ccc(-c4ccccc4)cc3)NC(=O)[C@H](C(C)C)NC2=O)c1 (stereo partly drawn) [Compound 1180] ({CH2CO}-[Dap]Y(Carboxymethyl)[ξD][Phe(3-Me)]V[ξBip][Cit][Orn][dL][Dab][Cha]VTC[AEEA]R[Aun]-OH; thioether N-14)	0.0184 µM
Cc1cccc(C[C@@H]2NC(=O)C(CC(=O)O)NC(=O)[C@H](Cc3ccc(OCC(=O)O)cc3)NC(=O)[C@H](CN)NC(=O)CSC[C@@H](C(=O)N[C@@H](CN)C(=O)NCCCCCCCCCCC(=O)O)NC(=O)[C@H]([C@@H](C)O)NC(=O)[C@H](C(C)C)NC(=O)[C@H](CC3CCCCC3)NC(=O)[C@H](CCN)NC(=O)[C@@H](CC(C)C)NC(=O)[C@H](CCCN)NC(=O)[C@H](CCCNC(N)=O)NC(=O)C(Cc3ccc(-c4ccccc4)cc3)NC(=O)[C@H](C(C)C)NC2=O)c1 (stereo partly drawn) [Compound 1181] ({CH2CO}-[Dap]Y(Carboxymethyl)[ξD][Phe(3-Me)]V[ξBip][Cit][Orn][dL][Dab][Cha]VTC[Dap][Aun]-OH; thioether N-14)	0.0117 µM
CC[C@H](C)[C@@H]1NC(=O)[C@H](Cc2ccc(-c3ccccc3)cc2)NC(=O)[C@H](C(C)C)NC(=O)[C@H](Cc2cccc(C)c2)NC(=O)[C@H](CC(=O)O)NC(=O)[C@H](Cc2ccc(C(=O)O)cc2)NC(=O)[C@H](Cc2ccncc2)NC(=O)CSC[C@@H](C(=O)NCCOCCOCC(=O)NCCCCCCCCCCC(=O)O)NC(=O)[C@H]([C@@H](C)O)NC(=O)[C@H](C(C)C)NC(=O)[C@H](CC2CCCCC2)NC(=O)[C@H](CCN)NC(=O)[C@@H](CC(C)C)NC(=O)[C@H](CCCN)NC1=O [Compound 1182]	0.0437 µM
CC[C@H](C)[C@@H]1NC(=O)[C@H](Cc2ccc(-c3ccccc3)cc2)NC(=O)[C@H](C(C)C)NC(=O)[C@H](Cc2cccc(C)c2)NC(=O)[C@H](CC(=O)O)NC(=O)[C@H](Cc2ccc(C(=O)O)cc2)NC(=O)[C@H](Cc2ccncc2)NC(=O)CSC[C@@H](C(=O)N[C@@H](CCCN)C(=O)NCCCCCCCCCCC(=O)O)NC(=O)[C@H]([C@@H](C)O)NC(=O)[C@H](C(C)C)NC(=O)[C@H](CC2CCCCC2)NC(=O)[C@H](CCN)NC(=O)[C@@H](CC(C)C)NC(=O)[C@H](CCCN)NC1=O [Compound 1184]	0.0515 µM
CC[C@H](C)[C@@H]1NC(=O)[C@H](Cc2ccc(-c3ccccc3)cc2)NC(=O)[C@H](C(C)C)NC(=O)[C@H](Cc2cccc(C)c2)NC(=O)[C@H](CC(=O)O)NC(=O)[C@H](Cc2ccc(C(=O)O)cc2)NC(=O)[C@H](Cc2ccncc2)NC(=O)CSC[C@@H](C(=O)N[C@@H](CCCCN)C(=O)NCCCCCCCCCCC(=O)O)NC(=O)[C@H]([C@@H](C)O)NC(=O)[C@H](C(C)C)NC(=O)[C@H](CC2CCCCC2)NC(=O)[C@H](CCN)NC(=O)[C@@H](CC(C)C)NC(=O)[C@H](CCCN)NC1=O [Compound 1185]	0.0442 µM

The remaining lines, values ahead:

IC50	SMILES
0.103 µM	CC[C@H](C)[C@@H]1NC(=O)[C@H](Cc2ccc(-c3ccccc3)cc2)NC(=O)[C@H](C(C)C)NC(=O)[C@H](Cc2cccc(C)c2)NC(=O)[C@H](CC(=O)O)NC(=O)[C@H](Cc2ccc(C(=O)O)cc2)NC(=O)[C@H](Cc2ccncc2)NC(=O)CSC[C@@H](C(=O)N[C@@H](CCCNC(=N)N)C(=O)NCCCCCCCCCCC(=O)O)NC(=O)[C@H]([C@@H](C)O)NC(=O)[C@H](C(C)C)NC(=O)[C@H](CC2CCCCC2)NC(=O)[C@H](CCN)NC(=O)[C@@H](CC(C)C)NC(=O)[C@H](CCCN)NC1=O [Compound 1186]
0.0628 µM	CC[C@H](C)[C@@H]1NC(=O)[C@H](Cc2ccc(-c3ccccc3)cc2)NC(=O)[C@H](C(C)C)NC(=O)[C@H](Cc2cccc(C)c2)NC(=O)[C@H](CC(=O)O)NC(=O)[C@H](Cc2ccc(C(=O)O)cc2)NC(=O)[C@H](Cc2ccncc2)NC(=O)CSC[C@@H](C(=O)N[C@@H](Cc2cnc[nH]2)C(=O)NCCCCCCCCCCC(=O)O)NC(=O)[C@H]([C@@H](C)O)NC(=O)[C@H](C(C)C)NC(=O)[C@H](CC2CCCCC2)NC(=O)[C@H](CCN)NC(=O)[C@@H](CC(C)C)NC(=O)[C@H](CCCN)NC1=O [Compound 1187]
0.148 µM	CC[C@H](C)[C@@H]1NC(=O)[C@H](Cc2ccc(-c3ccccc3)cc2)NC(=O)[C@H](C(C)C)NC(=O)[C@H](Cc2cccc(C)c2)NC(=O)[C@H](CC(=O)O)NC(=O)[C@H](Cc2ccc(C(=O)O)cc2)NC(=O)[C@H](Cc2ccncc2)NC(=O)CSC[C@@H](C(=O)NCCOCCOCC(=O)N[C@@H](CN)C(=O)NCCCCCCCCCCC(=O)O)NC(=O)[C@H]([C@@H](C)O)NC(=O)[C@H](C(C)C)NC(=O)[C@H](CC2CCCCC2)NC(=O)[C@H](CCN)NC(=O)[C@@H](CC(C)C)NC(=O)[C@H](CCCN)NC1=O [Compound 1188] ({CH2CO}-[4Pal][Phe(4-COOH)]D[Phe(3-Me)]V[Bip]I[Orn][dL][Dab][Cha]VTC[AEEA][Dap][Aun]-OH; thioether N-14)
0.0236 µM	CC[C@H](C)[C@@H]1NC(=O)[C@H](Cc2ccc(-c3ccccc3)cc2)NC(=O)[C@H](C(C)C)NC(=O)[C@H](Cc2cccc(C)c2)NC(=O)[C@H](CC(=O)O)NC(=O)[C@H](Cc2ccc(C(=O)O)cc2)NC(=O)[C@H](Cc2ccncc2)NC(=O)CSC[C@@H](C(=O)NCCOCCOCC(=O)N[C@@H](CCN)C(=O)NCCCCCCCCCCC(=O)O)NC(=O)[C@H]([C@@H](C)O)NC(=O)[C@H](C(C)C)NC(=O)[C@H](CC2CCCCC2)NC(=O)[C@H](CCN)NC(=O)[C@@H](CC(C)C)NC(=O)[C@H](CCCN)NC1=O [Compound 1189] ({CH2CO}-[4Pal][Phe(4-COOH)]D[Phe(3-Me)]V[Bip]I[Orn][dL][Dab][Cha]VTC[AEEA][Dab][Aun]-OH; thioether N-14)
